Molecules are shown by their SMILES. A value given as a limit tells only on which side of the number the result lay.

This experiment has as its system acute HIV infection of T-lymphoid cells. In words: Assay for inhibition of HIV replication (spread assay). The experiment is classed as cell-based. Conditions: Human immunodeficiency virus 1; inhibition of acute HIV infection of T-lymphoid cells; read-out: IC95, spread assay. As for the experimental part:
An assay for the inhibition of acute HIV infection of T-lymphoid cells (alternatively referred to herein as the “spread assay”) was conducted in accordance with Vacca, J. P. et al., Proc. Natl. Acad. Sci. USA 1994, 91: 4096. […] The compounds set forth in the other Examples were not tested in the spread assay.
For orientation: IC95 means the point of the concentration-response curve where the effect stands at 95%. As for `O=C(COCc1ccccc1)Nc1[nH]c2ccc(Cl)cc2c1S(=O)(=O)c1ccccc1` [Example 6, 2-(benzyloxy)-N-[5-chloro-3-(phenylsulfonyl)-1H-indol-2-yl]acetamide], the IC95 was < 1 µM.

Regarding `CCC(=O)Nc1[nH]c2ccc(Cl)cc2c1S(=O)(=O)c1ccccc1` [Example 7, N-[5-chloro-3-(phenylsulfonyl)-1H-indol-2-yl]propanamide], the 95% effect concentration (IC95) is < 1 µM.

`O=C(Nc1[nH]c2ccc(Cl)cc2c1S(=O)(=O)c1ccccc1)C1CCC1` [Example 9, N-[5-chloro-3-(phenylsulfonyl)-1H-indol-2-yl]cyclobutanecarboxamide]: the IC95 was < 1 µM.

Turning to `O=C(CNC1CC1)Nc1[nH]c2ccc(Cl)cc2c1S(=O)(=O)c1ccccc1` [Example 12, N^1-[5-chloro-3-(phenylsulfonyl)-1H-indol-2-yl]-N^2-cyclopropylglycinamide], the IC95 is < 1 µM.

As for `O=C(Cc1ccc(F)cc1)Nc1[nH]c2ccc(Cl)cc2c1S(=O)(=O)c1ccccc1` [Example 16, N-[5-chloro-3-(phenylsulfonyl)-1H-indol-2-yl]-2-(4-fluorophenyl)acetamide], the IC95 is < 1 µM.

Consider `O=C(CN1CCCC(F)(F)C1)Nc1[nH]c2ccc(Cl)cc2c1S(=O)(=O)c1ccccc1` [Example 17, N-[5-chloro-3-(phenylsulfonyl)-1H-indol-2-yl]-2-(3,3-difluoropiperidin-1-yl)acetamide], for which the IC95 was < 1 µM.

As to `O=C(Nc1[nH]c2ccc(Cl)cc2c1S(=O)(=O)c1ccccc1)c1ccc(F)cc1F` [Example 18, N-[5-chloro-3-(phenylsulfonyl)-1H-indol-2-yl]-2,4-difluorobenzamide], the IC95 is < 1 µM.

Regarding `O=C(Nc1[nH]c2ccc(Cl)cc2c1S(=O)(=O)c1ccccc1)c1ccccc1F` [Example 19, N-[5-chloro-3-(phenylsulfonyl)-1H-indol-2-yl]-2-fluorobenzamide], the IC95 was < 1 µM.

With `O=C(Nc1[nH]c2ccc(Cl)cc2c1S(=O)(=O)c1ccccc1)c1ccncc1` [Example 20, N-[5-chloro-3-(phenylsulfonyl)-1H-indol-2-yl]isonicotinamide], the concentration for an effect of 95% (IC95) is < 1 µM.

For `Cc1ccoc1C(=O)Nc1[nH]c2ccc(Cl)cc2c1S(=O)(=O)c1ccccc1` [Example 24, N-[5-chloro-3-(phenylsulfonyl)-1H-indol-2-yl]-3-methyl-2-furamide], the 95% effect concentration (IC95) was < 1 µM.

For `O=C(Nc1[nH]c2ccc(Cl)cc2c1S(=O)(=O)c1ccccc1)c1cccc(F)c1` [Example 25, N-[5-chloro-3-(phenylsulfonyl)-1H-indol-2-yl]-3-fluorobenzamide], the IC95 was < 1 µM.

For the compound `CCOC(=O)CNC(=O)Nc1[nH]c2ccc(Cl)cc2c1S(=O)(=O)c1ccccc1` [Example 27, ethyl N-({[5-chloro-3-(phenylsulfonyl)-1H-indol-2-yl]amino}carbonyl)glycinate], the IC95 is < 1 µM.

Regarding `O=C(Nc1[nH]c2ccc(Cl)cc2c1S(=O)(=O)c1ccccc1)c1ccccc1` [Example 28, N-[5-chloro-3-(phenylsulfonyl)-1H-indol-2-yl]benzamide], the 95% effect concentration (IC95) is < 1 µM.

Regarding `O=C(Nc1cccc(F)c1)Nc1[nH]c2ccc(Cl)cc2c1S(=O)(=O)c1ccccc1` [Example 29, N-[5-chloro-3-(phenylsulfonyl)-1H-indol-2-yl]-N′-(3-fluorophenyl)urea], the IC95 is < 1 µM.

For `COCC(=O)Nc1[nH]c2ccc(Cl)cc2c1S(=O)(=O)c1ccccc1` [Example 34, N-[5-chloro-3-(phenylsulfonyl)-1H-indol-2-yl]-2-methoxyacetamide], the IC95 was < 1 µM.

`O=C(Nc1ccccc1)Nc1[nH]c2ccc(Cl)cc2c1S(=O)(=O)c1ccccc1` [Example 35, N-[5-chloro-3-(phenylsulfonyl)-1H-indol-2-yl]-N′-phenylurea]: the IC95 was < 1 µM.

Take `O=C(Nc1ccccc1C(F)(F)F)Nc1[nH]c2ccc(Cl)cc2c1S(=O)(=O)c1ccccc1` [Example 41, N-[5-chloro-3-(phenylsulfonyl)-1H-indol-2-yl]-N′-[2-(trifluoromethyl)phenyl]urea]: the IC95 was < 1 µM.

For `Cn1ccnc1CNCC(=O)Nc1[nH]c2ccc(Cl)cc2c1S(=O)(=O)c1ccccc1` [Example 42, N^1-[5-chloro-3-(phenylsulfonyl)-1H-indol-2-yl]-N^2-[(1-methyl-1H-imidazol-2-yl)methyl]glycinamide], the IC95 is < 1 µM.

Regarding `Cc1cccc(CNC(=O)Nc2[nH]c3ccc(Cl)cc3c2S(=O)(=O)c2ccccc2)c1` [Example 43, N-[5-chloro-3-(phenylsulfonyl)-1H-indol-2-yl]-N′-(3-methylbenzyl)urea], the IC95 is < 1 µM.

For `O=C(Nc1[nH]c2ccc(Cl)cc2c1S(=O)(=O)c1ccccc1)NC1CCCC1` [Example 44, N-[5-chloro-3-(phenylsulfonyl)-1H-indol-2-yl]-N′-cyclopentylurea], the IC95 is < 1 µM.

Consider `CC1(CNCC(=O)Nc2[nH]c3ccc(Cl)cc3c2S(=O)(=O)c2ccccc2)COC1` [Example 45, N^1-[5-chloro-3-(phenylsulfonyl)-1H-indol-2-yl]-N^2-[(3-methyloxetan-3-yl)methyl]glycinamide], for which the IC95 is < 1 µM.

As for `CCC(C)NC(=O)Nc1[nH]c2ccc(Cl)cc2c1S(=O)(=O)c1ccccc1` (stereo not shown) [Example 46, N-(sec-butyl)-N′-[5-chloro-3-(phenylsulfonyl)-1H-indol-2-yl]urea], the IC95 was < 1 µM.

On to `O=C(Nc1[nH]c2ccc(Cl)cc2c1S(=O)(=O)c1ccccc1)C1CCCC1` [Example 47, N-[5-chloro-3-(phenylsulfonyl)-1H-indol-2-yl]cyclopentanecarboxamide], for which the IC95 was < 1 µM.

For `CCCCNC(=O)Nc1[nH]c2ccc(Cl)cc2c1S(=O)(=O)c1ccccc1` [Example 48, N-butyl-N′-[5-chloro-3-(phenylsulfonyl)-1H-indol-2-yl]urea], the IC95 was < 1 µM.

As to `O=C(NCCc1ccccc1)Nc1[nH]c2ccc(Cl)cc2c1S(=O)(=O)c1ccccc1` [Example 49, N-[5-chloro-3-(phenylsulfonyl)-1H-indol-2-yl]-N′-(2-phenylethyl)urea], the 95% effect concentration (IC95) lay within 1 to 10 µM.

With `O=C(NCc1cccc(F)c1)Nc1[nH]c2ccc(Cl)cc2c1S(=O)(=O)c1ccccc1` [Example 50, N-[5-chloro-3-(phenylsulfonyl)-1H-indol-2-yl]-N′-(3-fluorobenzyl)urea], the IC95 was < 1 µM.

Consider `COc1cccc(CNCC(=O)Nc2[nH]c3ccc(Cl)cc3c2S(=O)(=O)c2ccccc2)c1` [Example 51, N^1-[5-chloro-3-(phenylsulfonyl)-1H-indol-2-yl]-N^2-(3-methoxybenzyl)glycinamide], for which the IC95 was < 1 µM.

In the case of `O=C(NCc1ccc(F)cc1)Nc1[nH]c2ccc(Cl)cc2c1S(=O)(=O)c1ccccc1` [Example 52, N-[5-chloro-3-(phenylsulfonyl)-1H-indol-2-yl]-N′-(4-fluorobenzyl)urea], the IC95 was < 1 µM.

Take `CS(=O)(=O)N1CCN(CC(=O)Nc2[nH]c3ccc(Cl)cc3c2S(=O)(=O)c2ccccc2)CC1` [Example 53, N-[5-chloro-3-(phenylsulfonyl)-1H-indol-2-yl]-2-[4-(methylsulfonyl)piperazin-1-yl]acetamide]: the IC95 is < 1 µM.

Regarding `O=C(CN1CCC(c2ccccn2)C1)Nc1[nH]c2ccc(Cl)cc2c1S(=O)(=O)c1ccccc1` (stereo not shown) [Example 56, N-[5-chloro-3-(phenylsulfonyl)-1H-indol-2-yl]-2-(3-pyridin-2-ylpyrrolidin-1-yl)acetamide], the concentration for an effect of 95% (IC95) was < 1 µM.

Regarding `O=C(Nc1[nH]c2ccc(Cl)cc2c1S(=O)(=O)c1ccccc1)NC1CCCCC1` [Example 57, N-[5-chloro-3-(phenylsulfonyl)-1H-indol-2-yl]-N′-cyclohexylurea], the IC95 is < 1 µM.

Turning to `O=C(Nc1[nH]c2ccc(Cl)cc2c1S(=O)(=O)c1ccccc1)NC1CC1c1ccccc1` (stereo not shown) [Example 58, N-[5-chloro-3-(phenylsulfonyl)-1H-indol-2-yl]-N′-(2-phenylcyclopropyl)urea], the IC95 was < 1 µM.

With `CC(NCC(=O)Nc1[nH]c2ccc(Cl)cc2c1S(=O)(=O)c1ccccc1)c1ccccc1` (stereo not shown) [Example 59, 2-{[5-chloro-3-(phenylsulfonyl)-1H-indol-2-yl]amino}-2-oxo-N-(1-phenylethyl)ethanamine], the IC95 is < 1 µM.

With `O=C(Nc1[nH]c2ccc(Cl)cc2c1S(=O)(=O)c1ccccc1)C1CCCCC1` [Example 60, N-[5-chloro-3-(phenylsulfonyl)-1H-indol-2-yl]cyclohexanecarboxamide], the IC95 was < 1 µM.

Regarding `CN1CCN(CC(=O)Nc2[nH]c3ccc(Cl)cc3c2S(=O)(=O)c2ccccc2)CC1` [Example 61, N-[5-chloro-3-(phenylsulfonyl)-1H-indol-2-yl]-2-(4-methylpiperazin-1-yl)acetamide], the IC95 was < 1 µM.

Consider `CC(C)NC(=O)Nc1[nH]c2ccc(Cl)cc2c1S(=O)(=O)c1ccccc1` [Example 62, N-[5-chloro-3-(phenylsulfonyl)-1H-indol-2-yl]-N′-isopropylurea], for which the IC95 is < 1 µM.

On to `O=C(COc1ccccc1)Nc1[nH]c2ccc(Cl)cc2c1S(=O)(=O)c1ccccc1` [Example 65, N-[5-chloro-3-(phenylsulfonyl)-1H-indol-2-yl]-2-phenoxyacetamide], for which the IC95 is < 1 µM.

As to `O=C(Nc1cc(F)cc(F)c1)Nc1[nH]c2ccc(Cl)cc2c1S(=O)(=O)c1ccccc1` [Example 66, N-[5-chloro-3-(phenylsulfonyl)-1H-indol-2-yl]-N′-(3,5-difluorophenyl)urea], the IC95 was < 1 µM.

Consider `O=C(Nc1cccc(C(F)(F)F)c1)Nc1[nH]c2ccc(Cl)cc2c1S(=O)(=O)c1ccccc1` [Example 68, N-[5-chloro-3-(phenylsulfonyl)-1H-indol-2-yl]-N′-[3-(trifluoromethyl)phenyl]urea], for which the concentration for an effect of 95% (IC95) is < 1 µM.

`O=C(NCc1c(F)cccc1Cl)Nc1[nH]c2ccc(Br)cc2c1S(=O)(=O)N1CCCC1` [Example 95, N-[5-bromo-3-(pyrrolidin-1-ylsulfonyl)-1H-indol-2-yl]-N′-(2-chloro-6-fluorobenzyl)urea]: the IC95 was < 1 µM.
